Ends that are not written are not given here.
Experiments:
[1] = system: human bronchial epithelial cells (BEAS-2B)
[2] = system: human umbilical vein endothelial cells (HUVEC)
[3] = system: human embryonic kidney cells (HEK293T)
[4] = system: human pancreatic ductal epithelial cells (HPNE)
[5] = Electronic tongue analysis (Taste-Sensing System SA 402B); set-up: unit not given here; details: reference solution 30 mM KCl + 0.3 mM tartaric acid as baseline, first measurement excluded; for Umami: sensor AAE; for Umami / Bitter / Sweet: detection threshold 0, room temperature; for Umami / Bitter / Sour / Salty: four replicates; for Sour: detection threshold -13, room temperature; for Salty: detection threshold -6, room temperature; for Sweet: measured five times
How it was run: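 Samples were tested at 0.1 and 1.0 mg/mL on an SA 402B e-tongue fitted with sourness, saltiness, bitterness, sweetness and umami sensors, with 30 mM KCl/0.3 mM tartaric acid as reference and baseline. Thresholds were −13 for sour, −6 for salty and 0 for the rest. Runs at room temperature: four replicates, five for sweetness, first reading discarded.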

Substance | Average cell viability, BEAS-2B [1] | Cell viability, BEAS-2B, Data1 [1] | Cell viability, BEAS-2B, Data2 [1] | Cell viability, BEAS-2B, Data3 [1] | Average cell viability, HUVEC [2] | Cell viability, HUVEC, Data1 [2] | Cell viability, HUVEC, Data2 [2] | Cell viability, HUVEC, Data3 [2] | Average cell viability, HEK293T [3] | Cell viability, HEK293T, Data1 [3] | Cell viability, HEK293T, Data2 [3] | Cell viability, HEK293T, Data3 [3] | Average cell viability, HPNE [4] | Cell viability, HPNE, Data1 [4] | Cell viability, HPNE, Data2 [4] | Cell viability, HPNE, Data3 [4] | Umami ([5]; peptide 0.1 mg/mL) | Umami ([5]; peptide 1 mg/mL) | Bitter ([5]; sensor C00, peptide 0.1 mg/mL) | Bitter ([5]; sensor C00, peptide 1 mg/mL) | further results
EQGEQN [TaPep15] | 103.09 | 105.68 | 95.51 | 108.08 | 100.56 | 103.30 | 104.26 | 94.12 | 92.65 | 98.80 | 86.59 | 92.56 | 101.30 | 84.06 | 112.61 | 107.22 | 3.17 | -3.63 | 6.27 | 4.11 | Sour ([5]; sensor CA0, peptide 0.1 mg/mL): -7.15; Sour ([5]; sensor CA0, peptide 1 mg/mL): 8.97; Salty ([5]; sensor CT0, peptide 0.1 mg/mL): -23.91; Salty ([5]; sensor CT0, peptide 1 mg/mL): 2.97; Sweet ([5]; sensor GL1, peptide 0.1 mg/mL): 9.72; Sweet ([5]; sensor GL1, peptide 1 mg/mL): -3.92
EQPLQA [TaPep21] | 98.84 | 92.62 | 108.57 | 95.31 | 102.16 | 96.59 | 98.43 | 111.44 | 97.76 | 94.35 | 95.58 | 103.34 | 98.70 | 92.25 | 87.35 | 116.51 | 0.99 | -5.14 | 7.83 | 3.66 | Sour ([5]; sensor CA0, peptide 0.1 mg/mL): -1.59; Sour ([5]; sensor CA0, peptide 1 mg/mL): 12.04; Salty ([5]; sensor CT0, peptide 0.1 mg/mL): -19.46; Salty ([5]; sensor CT0, peptide 1 mg/mL): 7.62; Sweet ([5]; sensor GL1, peptide 0.1 mg/mL): 5.53; Sweet ([5]; sensor GL1, peptide 1 mg/mL): -10.15
ESKDQ [TaPep55] | 109.14 | 112.96 | 98.40 | 116.05 | 102.82 | 107.29 | 96.11 | 105.06 | 98.14 | 94.73 | 101.07 | 98.61 | 94.61 | 105.92 | 82.36 | 95.54 | 1.27 | -4.53 | 7.76 | 2.75 | Sour ([5]; sensor CA0, peptide 0.1 mg/mL): -2.34; Sour ([5]; sensor CA0, peptide 1 mg/mL): 11.12; Salty ([5]; sensor CT0, peptide 0.1 mg/mL): -19.80; Salty ([5]; sensor CT0, peptide 1 mg/mL): 11.30; Sweet ([5]; sensor GL1, peptide 0.1 mg/mL): 5.21; Sweet ([5]; sensor GL1, peptide 1 mg/mL): -7.81
EVGMQE [TaPep56] | 108.94 | 97.91 | 109.67 | 119.24 | 106.36 | 96.04 | 108.89 | 114.16 | 101.26 | 104.86 | 101.55 | 97.38 | 104.53 | 109.42 | 91.95 | 112.21 | 2.28 | -4.04 | 7.18 | 3.33 | Sour ([5]; sensor CA0, peptide 0.1 mg/mL): -4.96; Sour ([5]; sensor CA0, peptide 1 mg/mL): 9.59; Salty ([5]; sensor CT0, peptide 0.1 mg/mL): -21.19; Salty ([5]; sensor CT0, peptide 1 mg/mL): 6.57; Sweet ([5]; sensor GL1, peptide 0.1 mg/mL): 7.84; Sweet ([5]; sensor GL1, peptide 1 mg/mL): -7.49
FEGDQDA [TaPep18] | 104.49 | 109.67 | 103.49 | 100.30 | 104.36 | 97.71 | 114.64 | 100.75 | 103.66 | 104.57 | 105.99 | 100.41 | 102.53 | 116.21 | 89.05 | 102.33 | 1.84 | -5.33 | 6.92 | 3.77 | Sour ([5]; sensor CA0, peptide 0.1 mg/mL): -3.88; Sour ([5]; sensor CA0, peptide 1 mg/mL): 13.35; Salty ([5]; sensor CT0, peptide 0.1 mg/mL): -22.88; Salty ([5]; sensor CT0, peptide 1 mg/mL): 7.99; Sweet ([5]; sensor GL1, peptide 0.1 mg/mL): 5.97; Sweet ([5]; sensor GL1, peptide 1 mg/mL): -5.91
FEGPE [TaPep62] | 106.55 | 112.26 | 103.59 | 103.79 | 108.97 | 109.69 | 105.38 | 111.84 | 100.16 | 97.95 | 102.21 | 100.32 | 104.06 | 108.32 | 92.35 | 111.51 | 1.43 | -4.77 | 7.43 | 3.70 | Sour ([5]; sensor CA0, peptide 0.1 mg/mL): -2.87; Sour ([5]; sensor CA0, peptide 1 mg/mL): 11.86; Salty ([5]; sensor CT0, peptide 0.1 mg/mL): -20.91; Salty ([5]; sensor CT0, peptide 1 mg/mL): 8.50; Sweet ([5]; sensor GL1, peptide 0.1 mg/mL): 6.38; Sweet ([5]; sensor GL1, peptide 1 mg/mL): -4.13
FNGVE [TaPep61] | 99.57 | 95.41 | 109.57 | 93.72 | 99.47 | 89.49 | 104.82 | 104.10 | 98.80 | 99.65 | 96.91 | 99.84 | 94.34 | 84.66 | 82.36 | 116.01 | 3.14 | -2.71 | 6.59 | 3.33 | Sour ([5]; sensor CA0, peptide 0.1 mg/mL): -7.21; Sour ([5]; sensor CA0, peptide 1 mg/mL): 6.60; Salty ([5]; sensor CT0, peptide 0.1 mg/mL): -23.88; Salty ([5]; sensor CT0, peptide 1 mg/mL): 3.55; Sweet ([5]; sensor GL1, peptide 0.1 mg/mL): 8.89; Sweet ([5]; sensor GL1, peptide 1 mg/mL): -2.71
FPEQQD [TaPep16] | 95.65 | 98.50 | 96.11 | 92.32 | 101.44 | 102.74 | 107.69 | 93.88 | 100.13 | 105.99 | 97.00 | 97.38 | 104.83 | 100.13 | 113.61 | 100.73 | 1.15 | -5.22 | 7.29 | 3.65 | Sour ([5]; sensor CA0, peptide 0.1 mg/mL): -2.22; Sour ([5]; sensor CA0, peptide 1 mg/mL): 12.97; Salty ([5]; sensor CT0, peptide 0.1 mg/mL): -21.97; Salty ([5]; sensor CT0, peptide 1 mg/mL): 7.92; Sweet ([5]; sensor GL1, peptide 0.1 mg/mL): 4.77; Sweet ([5]; sensor GL1, peptide 1 mg/mL): -5.75
FTEELE [TaPep32] | 106.88 | 104.99 | 104.59 | 111.07 | 98.11 | 111.20 | 89.81 | 93.32 | 100.73 | 105.14 | 99.56 | 97.48 | 103.23 | 117.80 | 110.72 | 81.16 | 1.89 | -4.56 | 7.51 | 2.80 | Sour ([5]; sensor CA0, peptide 0.1 mg/mL): -3.82; Sour ([5]; sensor CA0, peptide 1 mg/mL): 11.60; Salty ([5]; sensor CT0, peptide 0.1 mg/mL): -20.95; Salty ([5]; sensor CT0, peptide 1 mg/mL): 9.59; Sweet ([5]; sensor GL1, peptide 0.1 mg/mL): 8.60; Sweet ([5]; sensor GL1, peptide 1 mg/mL): -6.23

Source: paper PMC12543283, “TastepepAI: An artificial intelligence platform for taste peptide de novo design” (PLOS Computational Biology, 2025)
